Source: publication PMC4084891, “Decreased Phenotypic Susceptibility to Etravirine in Patients with Predicted Genotypic Sensitivity” (PLoS ONE, 2014)
Where two headings read alike, the source gives them in different places.

What was measured:
[1] = molecular target: HIV-1 reverse transcriptase, recovered from plasma of HIV-1 infected patients; design: method as in PMID 23364785; details: cited from earlier work
[2] = system: HIV-1 reverse transcriptase, recovered from plasma of HIV-1 infected patients; assay: ExaVir Drug susceptibility assay (RT-based phenotypic), RT recovered from patient plasma; assay type: biochemical
Procedure: Lysates containing intraviral RT were recovered from plasma using ExaVir Load, version 3 (Cavidi, Uppsala, Sweden). Briefly, virions from up to 1 ml plasma were bound to an ion exchange gel, washed, and the RT was extracted by lysing the purified virions. The RT was used to catalyse the incorporation of bromodeoxyuridine triphosphate (BrdUTP) into DNA via a poly-rA (ribodenylic acid template) plate. The amount of BrdU monophosphate (BrdUMP) incorporated into DNA was detected with an alkaline phosphatase (Ap) conjugated anti-BrdU monoclonal antibody. The Ap substrate para-nitrophenyl-diphosphate was used for colorimetric detection. […] The RT activity at each drug concentration was recalculated into percentage of RT activity in the absence of drug. The IC50 values were calculated using the median effect equation [23]. […] In the present study, two reference recombinant RTs, BH10-wild-type and its mutant form L100I, were analysed together with patient samples in each assay. The results of the phenotypic tests were evaluated independently by two persons (E.A, C.FR.K).

For `Cc1cc(C#N)cc(C)c1Oc1nc(Nc2ccc(C#N)cc2)nc(N)c1Br` [ETR, 4-[[6-amino-5-bromo-2[(4-cyanophenyl)amino]-4-pyrimidinyl]oxy]-3.5-dimethylbenzonitrile], the IC50 ([1]; read-out: IC50 for ETR, mean ± SD (reproducibility analysis, first value), not influenced by RT amount within 40–828 fg/ml RT) is listed as 1.6 ± 0.03 µM, the IC50 ([1]; read-out: IC50 for ETR, mean ± SD (reproducibility analysis, second value), not influenced by RT amount within 40–828 fg/ml RT) is listed as 3.1 ± 0.04 µM and the IC50 ([1]; read-out: IC50 for RT activity in the presence of ETR, mean ±SD, treatment-naïve patients and reference recombinant RTs) is listed as 2.5 ± 1 µM. For the same molecule, the “result of phenotypic assay” value ([2]; patient 4, K103R mutation, NNRTI-naïve) was “sensitive”, the “result of phenotypic assay” value ([2]; patients/samples 7, 11b, 15, 9a and 12, NNRTI stopped earlier) was “No phenotypic resistance” and the IC50 ([2]; read-out: IC50 to ETR, mean ±SD, ten samples considered sensitive (3a, 4, 7, 9a, 11b, 12, 15, 16, 17, 18)) was 3.1 ± 1.3 µM. The IC50 ([2]; read-out: IC50 to ETR, range, six samples with decreased susceptibility (1, 9b, 10, 11a, 19, 20)) was 6.4 to 13.6 µM, the IC50 ([2]; read-out: IC50 to ETR, patient sample 1) was 11.8 µM and the IC50 ([2]; read-out: IC50 to ETR, patient sample 2) was greater than 100 µM. It also gave an IC50 ([2]; read-out: IC50 to ETR, patient sample 3b) greater than 100 µM, an IC50 ([2]; read-out: IC50 to ETR, patient sample 6) greater than 100 µM and an IC50 ([2]; read-out: IC50 to ETR, patient sample 8a) greater than 100 µM. The IC50 ([2]; read-out: IC50 to ETR, patient sample 8b) was greater than 100 µM, the IC50 ([2]; read-out: IC50 to ETR, patient sample 9b) was 9.2 µM and the IC50 ([2]; read-out: IC50 to ETR, patient sample 10) was 13.6 µM. The IC50 ([2]; read-out: IC50 to ETR, patient sample 11a) was 7.3 µM, the IC50 ([2]; read-out: IC50 to ETR, patient sample 19) was 6.4 µM and the IC50 ([2]; read-out: IC50 to ETR, patient sample 20) was 7.2 µM.
